{"source": "patent US9132203B2", "about": "“Complex and contrast agent for photoimaging using the same” (CANON KABUSHIKI KAISHA, priority 2010, dated 2015)", "key": {"[1]": {"experiment": "Absorption spectrum / absorbance at 780 nm with a spectrophotometer", "format": "physicochemical", "conditions": "ICG 0.5 mg/mL, gelatin 40 mg/mL; FIG. 2, FIG. 5", "protocol": "The absorption spectrum of the obtained gelatin-ICG complex 1 was measured with a spectrophotometer (Beckman Coulter, Inc.).\nThe absorption spectrum and the absorbance at 780 nm of the gelatin-ICG complex 1 are illustrated in FIGS. 2 and 3, respectively. The absorption spectrum and the absorbance at 780 nm of ICG are also illustrated in FIGS. 2 and 3, respectively, as a comparative example.\nThe gelatin-ICG complex 1, 3, 4, 5, or 6 (final concentration, 40 or 100 mg/mL) and an ICG solution (final concentration, 0.5 mg/mL) were mixed to obtain a gelatin-ICG complex.\nThe complexes and the mixtures were prepared at final concentrations of ICG and a gelatin of 0.5 mg/mL and 40 mg/mL, respectively.\nAn ICG solution (final concentration, 0.1 mg/mL) and a gelatin (weight-average molecular weight, 10,000; final concentration, 100 m g/mL) were mixed to obtain a mixture (gelatin-ICG mixture) of a gelatin and ICG. The absorption spectrum of the obtained gelatin-ICG mixture was measured with a spectrophotometer. The results are illustrated in FIG. 19."}, "[2]": {"test_system": "cancer-bearing mouse having a cancer site in the left hindlimb", "experiment": "In vivo kinetics by fluorescent imaging in cancer-bearing mouse", "conditions": "caudal vein dosing, ICG 0.5 mg/ml; FIG. 17A-C, 18A", "protocol": "After the gelatin-ICG complex 1 was dosed from the caudal vein of a cancer-bearing mouse having a cancer site in the left hindlimb, images were taken over time with a fluorescent imaging apparatus (GE Healthcare), and in vivo kinetics of the gelatin-ICG complex 1 were evaluated.\nFurthermore, as a comparative example, ICG alone at the same concentration (0.5 mg/ml) was intravenously dosed to a cancer-bearing mouse, and a similar evaluation was performed. Changes with time in the fluorescent imaging after dosing the gelatin-ICG complex 1 are illustrated in FIG. 17A. Changes with time after dosing ICG alone are illustrated in FIG. 17B. Changes with time in the fluorescence intensity in these cancer tissues are illustrated in FIG. 17C.\nA gelatin-ICG complex 7 including a gelatin derivative 7 (DSPE 67% introduced) fluorescently labeled with Cy5.5 and ICG was prepared and dosed to a cancer-bearing mouse in the same manner as in Example 15 to evaluate in vivo kinetics of the gelatin derivative 7 itself. Changes with time in the fluorescent imaging are illustrated in FIG. 18A. Furthermore, ICG alone at the same concentration was dosed to a cancer-bearing mouse as a comparative example. Changes with time in the fluorescent imaging are illustrated in FIG. 18B."}, "[3]": {"experiment": "Stability: absorption spectrum with time in PBS or PBS containing albumin at 37° C.", "format": "physicochemical", "protocol": "To evaluate stability of the gelatin-ICG complex 1, the gelatin-ICG complex 1 was allowed to stand in PBS (phosphate buffered saline) or in PBS containing albumin (40 mg/mL) at 37° C., and the absorption spectrum was measured with time."}}}
{"molecule": "CC1(C)C(/C=C/C=C/C=C/C=C2/N(CCCCS(=O)(=O)[O-])c3ccc4ccccc4c3C2(C)C)=[N+](CCCCS(=O)(=O)[O-])c2ccc3ccccc3c21.[Na+]", "note": "[ICG, indocyanine green]", "values": [{"measurement": "absorption spectrum (associate around 700 nm, monomer around 780 nm)", "setting": "[1]", "value": "absorbance on the long wavelength side was low"}, {"measurement": "distribution of ICG to cancer tissue, fluorescence with time", "setting": "[2]", "value": "distributed to the cancer tissue temporarily after dosing ICG alone and eliminated with time"}, {"measurement": "changes with time in absorption spectrum / absorbance (λmax)", "setting": "[3]; PBS containing albumin (40 mg/mL)", "value": "stability was slightly inferior as compared with the stability of the gelatin-ICG complex 1"}, {"measurement": "changes with time in absorption spectrum / absorbance (λmax)", "setting": "[3]; PBS without albumin", "value": "changed greatly with time"}]}
